Source: patent US9090671B2, “Macrocyclic peptides” (Scynexis, Inc., priority 2008, dated 2015)

Columns and labels:
[1] = system: HCV RNA replicon ET (luc ubi neo/ET); assay: HCV RNA replicon luciferase assay in human hepatoma cell line ET; type: cell-based; conditions: Hepatitis C virus, 72 hours, read-out: EC50, effective concentration that reduced viral replication by 50% (HCV RNA replicon derived LUC activity)
Description: Representative compounds of the present invention were tested for activity against HCV using the methods adapted from those described by Kriger et al., 2001, Journal of Virology 75:4614-4624, Pietschmann et al., 2002, Journal of Virology, 76:4008-4021, and using HCV RNA constructs as described in U.S. Pat. No. 6,630,343. Compounds were examined in the human hepatoma cell line ET (lub ubi neo/ET), a HCV RNA replicon containing a stable luciferase (LUC) reporter. The HCV RNA replicon ET contains the 5′ end of HCV (with the HCV Internal Ribosome Entry Site (IRES) and the first few amino acids of the HCV core protein) which drives the production of a firefly luciferase (LUC), ubiquitin, and neomycin phosphotransferase (NeoR) fusion protein. Ubiquitin cleavage releases the LUC and NeoR proteins. The EMCV IRES element controls the translation of the HCV […] NS3-NS5. The NS3 protein cleaves the HCV polyprotein to release the mature NS3, NS4A, NS4B, NS5A and NS5B proteins that are required for HCV replication. At the 3′ end of the replicon is the authentic 3′ NTR of HCV. The activity of the LUC reporter is directly proportional to HCV replication levels and positive-control antiviral compounds produce a reproducible antiviral response using the LUC endpoint.
The compounds were dissolved in DMSO at five half-log concentrations each, ranging from either 0.03 to 3 μM or 1 to 100 μM. Subconfluent cultures of the ET line were plated out into 96 well plates dedicated for the analysis of cell numbers (cytotoxicity) or antiviral activity and the next day the compounds were added to the appropriate wells. […] Compound EC50 and EC90 values were derived from HCV RNA levels assessed as HCV RNA replicon derived LUC activity. Cytotoxicity was expressed as IC50 and IC90, the concentration of compound that inhibited cell viability by 50% and 90%, respectively. Compound IC50 and IC90 values were calculated using a colorimetric assay as an indication of cell numbers and cytotoxicity. The activity of the LUC reporter is directly proportional to HCV RNA levels in the human cell line. The HCV-replicon assay was validated in parallel experiments using interferon-alpha-2b as a positive control. Cyclosporine was also tested by way of comparison.

cyclophilin D = cyclophilin D (Homo sapiens, UniProt P30405); assay: Cyclophilin binding competitive ELISA (cyclophilin D); conditions: human recombinant cyclophilin, read-out: EC50, concentration required to achieve 50% inhibition, against cyclophilin D
Description: (§1) The cyclophilin inhibition binding of compounds disclosed herein is determined using a competitive ELISA adapted from the methods described by Quesniaux et al. (Eur. J. Immunol., 1987, 17:1359-1365). Activated ester of succinyl spacers bound to D-Lys^8-cyclosporine A (D-Lys^8-Cs) are coupled to bovine serum albumin (BSA) through D-lysyl residue in position 8. BSA is dissolved in 0.1 M borate buffer, pH 9.0 (4 mg in 1.4 ml). A hundredfold molar excess of D-Lys^8-Cs dissolved in dimethyl formamide (0.6 ml) is added drop wise to the BSA under vigorous stirring.
(§2) Microtiter Plates are coated with D-Lys^8-Cs-BSA conjugate (2 μg/ml in PBS for 24 hours at 4° C.). Plates are washed with Tween®/PBS and with PBS alone. To block nonspecific binding, 2% BSA/PBS (pH 7.4) is added to the wells and allowed to incubate for 2 hours at 37° C. […] Cyclophilin is detected with anti-cyclophilin rabbit antiserum diluted in 1% BSA containing PBS and incubates overnight at 4° C. […] Bound rabbit antibodies are then detected by goat anti-rabbit IgG conjugated to alkaline phosphatase diluted in 1% BSA-PBS and allowed to incubate for 2 hours at 37° C. […] After incubation with 4-nitrophenyl phosphate (1 g/l in diethanolamine buffer, pH 9.8) for 1 to 2 hours at 37° C., the enzymatic reaction is measured spectrophotometrically at 405 nm using a spectrophotometer. […]

cyclophilin A = cyclophilin A (Homo sapiens, UniProt P62937); assay: Cyclophilin binding competitive ELISA (cyclophilin A); conditions: human recombinant cyclophilin, read-out: EC50, concentration required to achieve 50% inhibition, against cyclophilin A
Description: as §1, §2

cyclophilin B = cyclophilin B (Homo sapiens, UniProt P23284); assay: Cyclophilin binding competitive ELISA (cyclophilin B); conditions: human recombinant cyclophilin, read-out: EC50, concentration required to achieve 50% inhibition, against cyclophilin B
Description: as §1, §2

cyclophilin D, sequence (P30405 30-207): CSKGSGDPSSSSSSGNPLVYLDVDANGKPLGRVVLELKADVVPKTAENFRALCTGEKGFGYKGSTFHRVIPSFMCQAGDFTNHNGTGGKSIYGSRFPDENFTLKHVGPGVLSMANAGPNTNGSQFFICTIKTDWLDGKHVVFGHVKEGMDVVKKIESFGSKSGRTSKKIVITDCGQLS
cyclophilin A, sequence (P62937 whole entry): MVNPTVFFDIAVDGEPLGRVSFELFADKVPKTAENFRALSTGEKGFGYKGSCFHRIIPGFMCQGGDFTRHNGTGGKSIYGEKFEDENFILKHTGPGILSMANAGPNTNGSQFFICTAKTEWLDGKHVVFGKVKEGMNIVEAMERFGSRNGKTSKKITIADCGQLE
cyclophilin B, sequence (P23284 34-216): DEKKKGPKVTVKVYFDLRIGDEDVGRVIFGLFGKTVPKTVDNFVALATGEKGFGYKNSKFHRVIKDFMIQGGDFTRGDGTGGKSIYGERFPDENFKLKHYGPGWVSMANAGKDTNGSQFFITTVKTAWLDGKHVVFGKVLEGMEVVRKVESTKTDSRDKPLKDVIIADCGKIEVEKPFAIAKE

| Structure (SMILES) | EC50 [1] | other results |
| --- | --- | --- |
| CC=CCC(C)C(O)C1C(=O)NC(CC)C(=O)N(C)C(SCCN(C)C)C(=O)N(C)C(CC(C)C)C(=O)N(Cc2ccccc2)C(C(C)C)C(=O)N(C)C(CC(C)C)C(=O)NC(C)C(=O)NC(C)C(=O)N(C)C(CC(C)C)C(=O)N(C)C(CC(C)C)C(=O)N(C)C(C(C)C)C(=O)N1C [Compound 1, [(R)-2-(N,N-Dimethylamino)ethylthio-Sar]^3-(N-benzyl)-Val^5-cyclosporine A] | < 1 µM |  |
| C/C=C/C[C@@H](C)[C@@H](O)[C@H]1C(=O)N[C@@H](CC)C(=O)N(C)C(SC)C(=O)N(C)[C@@H](CC(C)C)C(=O)N(Cc2ccccc2)[C@@H](C(C)C)C(=O)N(C)[C@@H](CC(C)C)C(=O)N[C@@H](C)C(=O)N[C@H](C)C(=O)N(C)[C@@H](CC(C)C)C(=O)N(C)[C@@H](CC(C)C)C(=O)N(C)[C@@H](C(C)C)C(=O)N1C (some centres unmarked) [Compound 4, [Methylthio-Sar]^3-(N-benzyl)-Val^5-cyclosporine A] | < 1 µM | EC50 (cyclophilin D): > 0.6 µM |
| CC=CCC(C)C(O)C1C(=O)NC(CC)C(=O)N(C)C(OC)C(=O)N(C)C(CC(C)C)C(=O)N(CC=CCOCc2ccccc2)C(C(C)C)C(=O)N(C)C(CC(C)C)C(=O)NC(C)C(=O)NC(C)C(=O)N(C)C(CC(C)C)C(=O)N(C)C(CC(C)C)C(=O)N(C)C(C(C)C)C(=O)N1C (stereo not drawn) [Compound 11, [Methoxy-Sar]^3-N-(trans-4-benzyloxy-but-2-enyl)-Val^5-cyclosporine A] | < 1 µM |  |
| CC=CCC(C)C(O)C1C(=O)NC(CC)C(=O)N(C)C(SCCC)C(=O)N(C)C(CC(C)C)C(=O)N(Cc2ccccc2)C(C(C)C)C(=O)N(C)C(CC(C)C)C(=O)NC(C)C(=O)NC(C)C(=O)N(C)C(CC(C)C)C(=O)N(C)C(CC(C)C)C(=O)N(C)C(C(C)C)C(=O)N1C (centres unmarked) [Compound 5, [n-Propylthio-Sar]^3-(N-benzyl)-Val^5-cyclosporine A] | > 1 µM | EC50 (cyclophilin A): > 0.6 µM; EC50 (cyclophilin B): > 0.6 µM; EC50 (cyclophilin D): > 0.6 µM |
| CC=CCC(C)C(O)C1C(=O)NC(CC)C(=O)N(C)C(OC)C(=O)N(C)C(CC(C)C)C(=O)N(CC=CC)C(C(C)C)C(=O)N(C)C(CC(C)C)C(=O)NC(C)C(=O)NC(C)C(=O)N(C)C(CC(C)C)C(=O)N(C)C(CC(C)C)C(=O)N(C)C(C(C)C)C(=O)N1C (centres unmarked) [Compound 9, [Methoxy-Sar]^3-(N-but-2-enyl)-Val^5-cyclosporine A] | < 1 µM |  |
| CC=CCC(C)C(O)C1C(=O)NC(CC)C(=O)N(C)C(SC)C(=O)N(C)C(CC(C)C)C(=O)N(CC=CCN(C)C)C(C(C)C)C(=O)N(C)C(CC(C)C)C(=O)NC(C)C(=O)NC(C)C(=O)N(C)C(CC(C)C)C(=O)N(C)C(CC(C)C)C(=O)N(C)C(C(C)C)C(=O)N1C (stereo not drawn) [Compound 16, [Methylthio-Sar]^3-N-[trans-4-dimethylamino-but-2-enyl]-Val^5-cyclosporine A] | < 1 µM |  |
| CC=CCC(C)C(O)C1C(=O)NC(CC)C(=O)N(C)C(OC)C(=O)N(C)C(CC(C)C)C(=O)N(CC=CCN(C)C)C(C(C)C)C(=O)N(C)C(CC(C)C)C(=O)NC(C)C(=O)NC(C)C(=O)N(C)C(CC(C)C)C(=O)N(C)C(CC(C)C)C(=O)N(C)C(C(C)C)C(=O)N1C (stereo not drawn) [Compound 17, [Methoxy-Sar]^3-N-[trans-4-dimethylamino-but-2-enyl]-Val^5-cyclosporine A] | < 1 µM |  |
| C=CCN1C(=O)C(CC(C)C)N(C)C(=O)C(OC)N(C)C(=O)C(CC)NC(=O)C(C(O)C(C)CC=CC)N(C)C(=O)C(C(C)C)N(C)C(=O)C(CC(C)C)N(C)C(=O)C(CC(C)C)N(C)C(=O)C(C)NC(=O)C(C)NC(=O)C(CC(C)C)N(C)C(=O)C1C(C)C (centres unmarked) [Compound 8, [Methoxy-Sar]^3-(N-allyl)-Val^5-cyclosporine A] | < 1 µM |  |
| CC=CCC(C)C(O)C1C(=O)NC(CC)C(=O)N(C)C(OC)C(=O)N(C)C(CC(C)C)C(=O)N(CC=C(C)C)C(C(C)C)C(=O)N(C)C(CC(C)C)C(=O)NC(C)C(=O)NC(C)C(=O)N(C)C(CC(C)C)C(=O)N(C)C(CC(C)C)C(=O)N(C)C(C(C)C)C(=O)N1C (centres unmarked) [Compound 10, [Methoxy-Sar]^3-(N-3-methyl-but-2-enyl)-Val^5-cyclosporine A] | < 1 µM |  |
| CC=CCC(C)C(O)C1C(=O)NC(CC)C(=O)N(C)C(SC)C(=O)N(C)C(CC(C)C)C(=O)N(CC=CCO)C(C(C)C)C(=O)N(C)C(CC(C)C)C(=O)NC(C)C(=O)NC(C)C(=O)N(C)C(CC(C)C)C(=O)N(C)C(CC(C)C)C(=O)N(C)C(C(C)C)C(=O)N1C (stereo not drawn) [Compound 14, [Methylthio-Sar]^3-N-[trans-4-hydroxy-but-2-enyl]-Val^5-cyclosporine A] | < 1 µM |  |
| CC=CCC(C)C(O)C1C(=O)NC(CC)C(=O)N(C)C(OC)C(=O)N(C)C(CC(C)C)C(=O)N(Cc2cccc(C(F)(F)F)c2)C(C(C)C)C(=O)N(C)C(CC(C)C)C(=O)NC(C)C(=O)NC(C)C(=O)N(C)C(CC(C)C)C(=O)N(C)C(CC(C)C)C(=O)N(C)C(C(C)C)C(=O)N1C (centres unmarked) [Compound 7, [Methoxy-Sar]^3-(3-trifluoromethylbenzyl)-Val^5-cyclosporine A] | < 1 µM |  |
| CC=CCC(C)C(O)C1C(=O)NC(CC)C(=O)N(C)C(OC)C(=O)N(C)C(CC(C)C)C(=O)N(Cc2ccccc2)C(C(C)C)C(=O)N(C)C(CC(C)C)C(=O)NC(C)C(=O)NC(C)C(=O)N(C)C(CC(C)C)C(=O)N(C)C(CC(C)C)C(=O)N(C)C(C(C)C)C(=O)N1C (centres unmarked) [Compound 6, [Methoxy-Sar]^3-(N-benzyl)-Val^5-cyclosporine A] | < 1 µM |  |
| CC=CCC(C)C(O)C1C(=O)NC(CC)C(=O)N(C)C(OC)C(=O)N(C)C(CC(C)C)C(=O)N(CC=CCO)C(C(C)C)C(=O)N(C)C(CC(C)C)C(=O)NC(C)C(=O)NC(C)C(=O)N(C)C(CC(C)C)C(=O)N(C)C(CC(C)C)C(=O)N(C)C(C(C)C)C(=O)N1C (stereo not drawn) [Compound 15, [Methoxy-Sar]^3-N-[trans-4-hydroxy-but-2-enyl]-Val^5-cyclosporine A] | < 1 µM |  |
